The record followed here is PubChem BioAssay AID2060494 (Molecular Pharmacology Branch, DTP, NCI, 2025).

As usually defined, the IC50 is the concentration that inhibits the measured activity by half.
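Further: spheroids exposed to the agents for seven days before readout.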

The subject of the first assay is 435261-313-R-J1-PDC complex spheroid viability. The experiment in a line: Anticancer human tumor 435261-313-R-J1-PDC patient-derived colon adenocarcinoma cell line growth inhibition [GQUAD]. Particulars: curve of first compound; second compound 0.0316 µM. The essentials: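 Multi-cell-type spheroids of tumor cells with HUVEC and mesenchymal stem cells, treated with drug combinations. Concentrations descend in half-log steps from near clinical Cmax, or from 10 microM where Cmax is unknown; viability read-out.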
On to `O=C(NO)c1cnc(N2CCN(S(=O)(=O)c3ccc4ccccc4c3)CC2)nc1` + Cc1[nH]c2ccc(F)cc2c1-c1nc2c3cccnc3c3ncccc3c2[nH]1, for which the IC50 came out at 430 nM.
Regarding `CC(C)n1c(=O)n(C)c2cnc3cc(F)c(-c4ccc(OCCCN5CCCCC5)nc4)cc3c21` + Cc1cnc(CNC(=O)c2c(=O)c3ccc(N4CCCN(C)CC4)nc3n3c2sc2ccccc23)cn1, the IC50 was 3960 nM.
Same read-out and setting: in the case of `CC1COCCN1c1cc(-c2ccnn2C)c2ccnc(-c3ccn[nH]3)c2n1` (stereo unspecified) + Cc1cnc(CNC(=O)c2c(=O)c3ccc(N4CCCN(C)CC4)nc3n3c2sc2ccccc23)cn1 it was 295 nM; in that of `CC1COCCN1c1cc(C2(S(C)(=N)=O)CC2)nc(-c2ccnc3[nH]ccc23)n1` (stereo unspecified) + Cc1cnc(CNC(=O)c2c(=O)c3ccc(N4CCCN(C)CC4)nc3n3c2sc2ccccc23)cn1, 3840 nM.
As to `COc1ccc([C@@H](O)c2cc(-c3ncnc4cc(N5CCOCC5)ccc34)c(F)cc2Cl)nn1` + Cc1cnc(CNC(=O)c2c(=O)c3ccc(N4CCCN(C)CC4)nc3n3c2sc2ccccc23)cn1, the IC50 was found to be 631 nM.

Staying with this assay, now noted: curve of first compound; second compound 0.1 µM.
As for `O=C(NO)c1cnc(N2CCN(S(=O)(=O)c3ccc4ccccc4c3)CC2)nc1` + Cc1[nH]c2ccc(F)cc2c1-c1nc2c3cccnc3c3ncccc3c2[nH]1, the concentration for half-maximal inhibition (IC50) turned out to be 503 nM.
On to `CC(C)n1c(=O)n(C)c2cnc3cc(F)c(-c4ccc(OCCCN5CCCCC5)nc4)cc3c21` + Cc1cnc(CNC(=O)c2c(=O)c3ccc(N4CCCN(C)CC4)nc3n3c2sc2ccccc23)cn1, for which the IC50 was found to be 4640 nM.
Turning to `CC1COCCN1c1cc(-c2ccnn2C)c2ccnc(-c3ccn[nH]3)c2n1` (stereo unspecified) + Cc1cnc(CNC(=O)c2c(=O)c3ccc(N4CCCN(C)CC4)nc3n3c2sc2ccccc23)cn1, the IC50 came to 425 nM.
For the compound `CC1COCCN1c1cc(C2(S(C)(=N)=O)CC2)nc(-c2ccnc3[nH]ccc23)n1` (stereo unspecified) + Cc1cnc(CNC(=O)c2c(=O)c3ccc(N4CCCN(C)CC4)nc3n3c2sc2ccccc23)cn1, the IC50 was found to be 3200 nM.
As to `COc1ccc([C@@H](O)c2cc(-c3ncnc4cc(N5CCOCC5)ccc34)c(F)cc2Cl)nn1` + Cc1cnc(CNC(=O)c2c(=O)c3ccc(N4CCCN(C)CC4)nc3n3c2sc2ccccc23)cn1, the concentration for half-maximal inhibition (IC50) is 392 nM.

Staying with this assay, now noted: curve of first compound; second compound 0.316 µM.
For `O=C(NO)c1cnc(N2CCN(S(=O)(=O)c3ccc4ccccc4c3)CC2)nc1` + Cc1[nH]c2ccc(F)cc2c1-c1nc2c3cccnc3c3ncccc3c2[nH]1, the IC50 came out at 600 nM.
Turning to `CC(C)n1c(=O)n(C)c2cnc3cc(F)c(-c4ccc(OCCCN5CCCCC5)nc4)cc3c21` + Cc1cnc(CNC(=O)c2c(=O)c3ccc(N4CCCN(C)CC4)nc3n3c2sc2ccccc23)cn1, the IC50 stood at 1080 nM.
Turning to `CC1COCCN1c1cc(-c2ccnn2C)c2ccnc(-c3ccn[nH]3)c2n1` (stereo unspecified) + Cc1cnc(CNC(=O)c2c(=O)c3ccc(N4CCCN(C)CC4)nc3n3c2sc2ccccc23)cn1, the IC50 came to 318 nM.
On the same count and under the same terms, next, `CC1COCCN1c1cc(C2(S(C)(=N)=O)CC2)nc(-c2ccnc3[nH]ccc23)n1` (stereo unspecified) + Cc1cnc(CNC(=O)c2c(=O)c3ccc(N4CCCN(C)CC4)nc3n3c2sc2ccccc23)cn1: 2350 nM; `COc1ccc([C@@H](O)c2cc(-c3ncnc4cc(N5CCOCC5)ccc34)c(F)cc2Cl)nn1` + Cc1cnc(CNC(=O)c2c(=O)c3ccc(N4CCCN(C)CC4)nc3n3c2sc2ccccc23)cn1: 157 nM.

Staying with this assay, now noted: curve of first compound; second compound 1 µM.
Turning to `O=C(NO)c1cnc(N2CCN(S(=O)(=O)c3ccc4ccccc4c3)CC2)nc1` + Cc1[nH]c2ccc(F)cc2c1-c1nc2c3cccnc3c3ncccc3c2[nH]1, the half-maximal inhibitory concentration (IC50) is 541 nM.
On the same count and under the same terms, in the case of `CC(C)n1c(=O)n(C)c2cnc3cc(F)c(-c4ccc(OCCCN5CCCCC5)nc4)cc3c21` + Cc1cnc(CNC(=O)c2c(=O)c3ccc(N4CCCN(C)CC4)nc3n3c2sc2ccccc23)cn1 it was less than 31.6 nM; in that of `CC1COCCN1c1cc(-c2ccnn2C)c2ccnc(-c3ccn[nH]3)c2n1` (stereo unspecified) + Cc1cnc(CNC(=O)c2c(=O)c3ccc(N4CCCN(C)CC4)nc3n3c2sc2ccccc23)cn1, less than 31.6 nM.
With `CC1COCCN1c1cc(C2(S(C)(=N)=O)CC2)nc(-c2ccnc3[nH]ccc23)n1` (stereo unspecified) + Cc1cnc(CNC(=O)c2c(=O)c3ccc(N4CCCN(C)CC4)nc3n3c2sc2ccccc23)cn1, the IC50 was less than 31.6 nM.
For the compound `COc1ccc([C@@H](O)c2cc(-c3ncnc4cc(N5CCOCC5)ccc34)c(F)cc2Cl)nn1` + Cc1cnc(CNC(=O)c2c(=O)c3ccc(N4CCCN(C)CC4)nc3n3c2sc2ccccc23)cn1, the IC50 was less than 31.6 nM.

Still in this assay, the particulars now being: curve of first compound; second compound 3.16 µM.
With `O=C(NO)c1cnc(N2CCN(S(=O)(=O)c3ccc4ccccc4c3)CC2)nc1` + Cc1[nH]c2ccc(F)cc2c1-c1nc2c3cccnc3c3ncccc3c2[nH]1, the IC50 was less than 31.6 nM.
In the case of `CC(C)n1c(=O)n(C)c2cnc3cc(F)c(-c4ccc(OCCCN5CCCCC5)nc4)cc3c21` + Cc1cnc(CNC(=O)c2c(=O)c3ccc(N4CCCN(C)CC4)nc3n3c2sc2ccccc23)cn1, the IC50 is less than 31.6 nM.
Take `CC1COCCN1c1cc(-c2ccnn2C)c2ccnc(-c3ccn[nH]3)c2n1` (stereo unspecified) + Cc1cnc(CNC(=O)c2c(=O)c3ccc(N4CCCN(C)CC4)nc3n3c2sc2ccccc23)cn1: the IC50 is less than 31.6 nM.
Take `CC1COCCN1c1cc(C2(S(C)(=N)=O)CC2)nc(-c2ccnc3[nH]ccc23)n1` (stereo unspecified) + Cc1cnc(CNC(=O)c2c(=O)c3ccc(N4CCCN(C)CC4)nc3n3c2sc2ccccc23)cn1: the IC50 was less than 31.6 nM.
Still for that read-out and setting: in the case of `COc1ccc([C@@H](O)c2cc(-c3ncnc4cc(N5CCOCC5)ccc34)c(F)cc2Cl)nn1` + Cc1cnc(CNC(=O)c2c(=O)c3ccc(N4CCCN(C)CC4)nc3n3c2sc2ccccc23)cn1 it was less than 31.6 nM.

Still in this assay, the particulars now being: curve of first compound; second compound 10 µM.
`O=C(NO)c1cnc(N2CCN(S(=O)(=O)c3ccc4ccccc4c3)CC2)nc1` + Cc1[nH]c2ccc(F)cc2c1-c1nc2c3cccnc3c3ncccc3c2[nH]1: the IC50 was less than 31.6 nM.
